Consider 23 molecules from patent US4656190A, “Indene derivatives and their use as PAF-antagonists” (Merck & Co., Inc., priority 1983, dated 1987).

Several values for one entry are separate records, joined by “and”; a condition that tells them apart may be missing. Identical values can stand only once. Like-named read-outs stand apart in the source and are kept apart here.

This experiment has as its target T1, PAF specific receptor binding site on rabbit platelet plasma membranes (Oryctolagus cuniculus, UniProt G1TEI7).
T1 construct: from tissue; host or cells: rabbit platelets (plasma membrane suspension)
The experiment can be described thus: Inhibition of 3H-PAF binding to rabbit platelet plasma membranes. On the procedure: In vitro, they inhibit PAF-induced functions in both the cellular and tissue levels by disturbing the PAF binding to its specific receptor site. The ability of a compound of formula (I) to inhibit the PAF binding to its specific receptor binding site on rabbit platelet plasma membranes was measured by an assay recently developed by us.
The inhibition of H^3 -PAF binding to the rabbit platelet plasma membrane by a PAF-antagonist of Formula (I) was determined by a method employing isotropic labeling and filtration techniques. Generally, a series of Tris-buffered solutions of the selected antagonist at predetermined concentrations were prepared. Each of these solutions contains 1 pmole of ^3 H-PAF, a known amount of the test antagonist, and a sufficient amount of the pH 7.5 Tris-buffer solution (10 mM Tris, 0.25% bovine serum albumin, and 150 mM NaCl per ml water) to make the final volume of 1 ml. After adding into a set of test tubes each with 100 μg of the platelet plasma membrane suspension (S. B. Hwang, et al., Biochemistry, 22, 4756 (1983)) and one of the Tris-buffer solutions described above, the resulting mixture in each test tube was incubated at 0° C. for about one hour or until the reaction was complete. Two control samples, one of which (C1) contains all the ingredients described above except the antagonist and the other (C2) contains C1 plus a 1000-fold excess of unlabeled PAF, were also prepared and incubated simultaneously with the test samples. After the incubation was completed, the contents of each test tube were filtered under vacuo through a Whatman GF/C fiberglass filter and the residue washed rapidly several times with a total of 20 ml cold (0°-5° C.) Tris-buffer solution. Each washed residue was then suspended in 10 ml scintillation solution (Aquasol 2, New England Nuclear, Connecticut) and the radioactivity was counted in a Packard Tri-Carb 460CD Liquid Scintillation System. Defining the counts from a test sample as "Total binding with antagonist"; the counts from the control sample C1, as "Total binding C1 "; and the counts from the control sample C2 as "non-specific binding C2 ", the percent inhibition of each test antagonist can be determined by the following equation: [formula]

The mark [1] stands for this setting: Table 1, E (trans), read-out: % Inhibition of PAF Binding.
[2] abbreviates: Table 1, E (trans), dose 5 μM, read-out: % Inhibition of PAF Binding.
[3] abbreviates: Table II, Z (cis), dose 5 μM, read-out: % Inhibition of PAF Receptor.
Where [4] appears, read: Table II, Z (cis), read-out: % Inhibition of PAF Receptor.

T1 sequence (G1TEI7 1-342): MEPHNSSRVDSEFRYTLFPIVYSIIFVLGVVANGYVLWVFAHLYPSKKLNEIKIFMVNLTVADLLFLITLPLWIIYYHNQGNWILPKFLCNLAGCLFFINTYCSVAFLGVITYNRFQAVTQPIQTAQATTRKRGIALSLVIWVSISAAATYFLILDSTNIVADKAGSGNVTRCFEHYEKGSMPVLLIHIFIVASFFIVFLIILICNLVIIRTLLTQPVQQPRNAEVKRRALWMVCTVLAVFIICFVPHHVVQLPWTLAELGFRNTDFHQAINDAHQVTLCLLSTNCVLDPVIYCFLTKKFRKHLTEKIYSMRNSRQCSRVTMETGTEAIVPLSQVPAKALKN

Usually inhibition stands for the change of the read-out against control, counted positive when it falls. For `COCCC1=C(C)/C(=C\c2ccc(S(N)(=O)=O)cc2)c2ccc(F)cc21` [E CH2CH2OCH3 / SO2NH2 / F, E 1-(4-aminosulfonylphenyl)methylene-5-fluoro-2-methyl-1H-3-indenyl-(2-methoxy)ethane], where the note is “read-out: % Inhibition of PAF Binding”, the inhibition at 5 µM came to 61%.
As to `COc1ccc2c(c1)C(CCO)=C(C)/C2=C\c1ccc(S(N)(=O)=O)cc1` [E CH2CH2OH / SO2NH2 / OCH3, E 1-(4-aminosulfonyl)methylene-5-methoxy-2-methyl-1H-3-indenyl-(2-hydroxy)ethane], the inhibition at 1 µM under setting [1] worked out at 59%.
Take `COc1ccc2c(c1)C(CCSc1ccccc1)=C(C)/C2=C\c1ccc(S(N)(=O)=O)cc1` [E CH2CH2SC6H5 / SO2NH2 / OCH3, E 1-(4-aminosulfonylphenyl)methylene-5-methoxy-2-methyl-1H-3-indenyl-(2-phenylthio)ethane]: the inhibition at 5 µM under setting [2] was 56%.
With `COc1ccc2c(c1)C(CC[S+](C)[O-])=C(C)/C2=C\c1ccc(S(N)(=O)=O)cc1` (stereo not shown) [E CH2CH2SOCH3 / SO2NH2 / OCH3, E 1-(4-aminosulfonylphenyl)methylene-5-methoxy-2-methyl-1H-3-indenyl-(2-methylsulfinyl)ethane], the inhibition at 0.5 µM under setting [1] stood at 24%. Besides, the inhibition at 5 µM under setting [2] stood at 74%.
Take `COC(=O)CC1=C(C)/C(=C\c2ccc(OC)c(OC)c2)c2ccc(OC)cc21` [E CH2COOCH3 / 3,4-dimethoxy / OCH3, E methyl 1-(3,4-dimethoxyphenyl)methylene-5-methoxy-2-methyl-1H-3-indenylacetate]: under setting [1], the inhibition at 1 µM was determined as 45% and the inhibition at 10 µM amounted to 87%.
As to `COC(=O)CC1=C(C)/C(=C\c2ccc(S(N)(=O)=O)cc2)c2ccc(F)cc21` [E CH2COOCH3 / SO2NH2 / F, E-Methyl 1-(4-aminosulfonylphenyl)methylene-5-fluoro-2-methyl-1H-3-indenylacetate], the inhibition at 1 µM under setting [1] is 60%.
Take `CNS(=O)(=O)c1ccc(/C=C2\C(C)=C(CC(=O)OC)c3cc(F)ccc32)cc1` [E CH2COOCH3 / SO2NHCH3 / F, E Methyl 1-[4-(N-methylaminosulfonyl)phenyl]-methylene-5-fluoro-2-methyl-1H-3-indenylacetate]: under setting [1], the inhibition at 1 µM was found to be 56%.
As for `CNS(=O)(=O)c1ccc(/C=C2\C(C)=C(CC(=O)OC)c3cc(OC)ccc32)cc1` [E CH2COOCH3 / SO2NHCH3 / OCH3, E Methyl 1-(4-(N-methylaminosulfonyl)phenyl)methylene-5-methoxy-2-methyl-1H-3-indenylacetate], under setting [1], the inhibition at 0.5 µM was determined as 67%. Moreover, the inhibition at 5 µM under setting [2] is 100%.
`COC(=O)CC1=C(C)/C(=C\c2ccc([S+](C)[O-])cc2)c2ccc(F)cc21` (stereo not shown) [E CH2COOCH3 / SOCH3 / F]: the inhibition at 5 µM under setting [2] is 45%.
For the molecule `COc1ccc2c(c1)C(CC(=O)O)=C(C)/C2=C\c1ccc(S(N)(=O)=O)cc1` [E CH2COOH / SO2NH2 / OCH3, 1-(4-aminosulfonylphenyl)methylene-5-methoxy-2-methyl-1H-3-indenyl acetic acid], the inhibition at 5 µM under setting [2] was 4%.
Consider `COc1ccc2c(c1)C(CCn1ccnc1)=C(C)/C2=C\c1ccc(S(N)(=O)=O)cc1` [E drawing 16 / SO2NH2 / OCH3], for which the inhibition at 0.1 µM (Table 1, E (trans), dose 0.1 μM, read-out: % Inhibition of PAF Binding) amounted to 17%. For the same molecule, under setting [1], the inhibition at 0.5 µM worked out at 31% and the inhibition at 1 µM was 45%. Further, under setting [2], the inhibition at 5 µM turned out to be 90%.
For the molecule `CSc1ccc(/C=C2/C(C)=C(CCNC(C)=O)c3cc(F)ccc32)cc1` [Z CH2CH2NHCOCH3 / SCH3 / F], under setting [3], the inhibition at 5 µM came out at 50%.
With `CC(=O)NCCC1=C(C)/C(=C/c2ccc(S(C)(=O)=O)cc2)c2ccc(F)cc21` [Z CH2CH2NHCOCH3 / SO2CH3 / F, Z 1-(4-methylsulfonylphenyl)methylene-5-fluoro-2-methyl-1H-3-indenyl-(2-acetamido)ethane], the “% Inhibition of PAF Receptor” value (Table II, Z (cis), dose 5 μM) is 68% and 90%.
As to `CC(=O)NCCC1=C(C)/C(=C/c2ccc([S+](C)[O-])cc2)c2ccc(F)cc21` (stereo not shown) [Z CH2CH2NHCOCH3 / SOCH3 / F, Z 1-(4-methylsulfinylphenyl)methylene-5-fluoro-2-methyl-1H-3-indenyl-(2-acetamido)ethane], under setting [3], the inhibition at 5 µM is 39%.
For the molecule `COCCC1=C(C)/C(=C/c2ccc(S(N)(=O)=O)cc2)c2ccc(F)cc21` [Z CH2CH2OCH3 / SO2NH2 / F, Z 1-(4-aminosulfonylphenyl)methylene-5-fluoro-2-methyl-1H-3-indenyl-(2-methoxy)ethane], the inhibition at 5 µM (read-out: % Inhibition of PAF Receptor) was 29%.
Take `COc1ccc2c(c1)C(CCSc1ccccc1)=C(C)/C2=C/c1ccc(S(N)(=O)=O)cc1` [Z CH2CH2SC6H5 / SO2NH2 / OCH3, Z 1-(4-aminosulfonylphenyl)methylene-5-methoxy-2-methyl-1H-3-indenyl-(2-phenylthio)ethane]: the inhibition at 5 µM under setting [3] stood at 33%.
With `COc1ccc2c(c1)C(CC[S+](C)[O-])=C(C)/C2=C/c1ccc(S(N)(=O)=O)cc1` (stereo not shown) [Z CH2CH2SOCH3 / SO2NH2 / OCH3, Z 1-(4-aminosulfonylphenyl)methylene-5-methoxy-2-methyl-1H-3-indenyl-(2-methylsulfinyl)ethane], the inhibition at 5 µM under setting [3] came out at 56%.
For the setting “Table II, Z (cis)”, `COC(=O)CC1=C(C)/C(=C/c2ccc(NS(C)(=O)=O)cc2)c2ccc(OC)cc21` [Z CH2COOCH3 / NHSO2CH3 / OCH3, Z methyl 1-(4-(N-mesylaminophenyl))methylene-5-methoxy-2-methyl-1H-3-indenylacetate] displayed an inhibition at 3 µM of 35%. Also, the inhibition at 10 µM under setting [4] was 72%.
On to `COC(=O)CC1=C(C)/C(=C/c2ccc(S(N)(=O)=O)cc2)c2ccc(OC)cc21` [Z CH2COOCH3 / SO2NH2 / OCH3, Z methyl 1-(4-aminosulfonylphenyl)methylene-5-methoxy-2-methyl-1H-3-indenylacetate], for which, under setting [4], the inhibition at 1 µM was determined as 39% and the inhibition at 10 µM turned out to be 75%. For the setting “Table II, Z (cis)”, this molecule returned an inhibition at 3 µM of 58%, an inhibition at 20 µM of 100% and an inhibition at 50 µM of 100%. Further, the inhibition at 5 µM under setting [3] came to 66%.
For `COC(=O)CC1=C(C)/C(=C/c2ccc(S(=O)(=O)NC(=N)N)cc2)c2ccc(OC)cc21` [Z CH2COOCH3 / SONHC(NH)NH2 / OCH3], the inhibition at 1 µM under setting [4] amounted to 50%.
As to `COc1ccc2c(c1)C(CC(=O)O)=C(C)/C2=C/c1ccc(S(N)(=O)=O)cc1` [Z CH2COOH / SO2NH2 / OCH3, 1-(4-aminosulfonylphenyl)methylene-5-methoxy-2-methyl-1H-3-indenylacetic acid], the inhibition at 5 µM under setting [3] is 32%. Under “Table II, Z (cis)”, this molecule returned an inhibition at 20 µM of 57% and an inhibition at 50 µM of 94%.
For `CCOc1ccc2c(c1)C(CC(=O)O)=C(C)/C2=C/c1ccc([S+](C)[O-])cc1` (stereo not shown) [Z CH2COOH / SOCH3 / OC2H5], the inhibition at 5 µM under setting [3] is 42%.
For `COc1ccc2c(c1)C(CCn1ccnc1)=C(C)/C2=C/c1ccc(S(N)(=O)=O)cc1` [Z drawing 18 / SO2NH2 / OCH3, Z 1-(4-aminosulfonylphenyl)methylene-5-methoxy-2-methyl-1H-3-indenyl-[2-(N-imidazolyl)]ethane], the inhibition at 5 µM under setting [3] was 68%.
